# Patent US9481743B2, “Polyelectrolyte polymers, their manufacture and use” (priority 2013, dated 2016)
# “Also recorded” adds a separate entry of the source.
# Columns and labels:
# [1] = Solubility/miscibility tests; assay type: physicochemical
# Procedure: Approximately 5-10 mg of compound was added to a test tube followed by the addition of 1.5 mL of solvent followed by 5 seconds of gentle stirring. If dissolution was not observed immediately, the mixture was further stirred and sonicated for 30 seconds. Material was deemed soluble if the resulting solution was free of particulate and haze, determined by visual inspection. […] If solutions remained hazy, they were referred to as emulsion mixtures.
# [2] = Static water contact angle of UV-cured phosphonium films with alumina microparticles; assay type: physicochemical
# Procedure: Solution ^1H, ^19F{^1H} and ^31P{^1H} NMR spectra were recorded on a Varian INOVA 400 MHz spectrometer (^1H; 400.09 MHz, ^31P; 161.82 MHz, ^19F; 376.15 MHz). All samples for ^1H NMR spectroscopy were referenced to the residual protons in the deuterated solvents (^1H: chloroform-d 7.26; acetone-d6 2.05). ^31P{^1H} and ^19F{^1H} NMR spectroscopic chemical shifts were reported relative to external standards (85% H3PO4: 0.00 ppm and CF3C6H5: −63.9 ppm). Mass spectrometry (MS) measurements were recorded in positive and negative ion modes using an electrospray ionization (ESI) Micromass LCT spectrometer. Infrared spectra were recorded using a Bruker Tensor 27 spectrometer from Bruker Optics Inc. Samples were measured by attenuated total reflectance (ATR) infrared spectroscopy, using a zinc selenide crystal. Melting points were determined using a Gallenkamp Variable Heater in air. Scanning electron microscope images of the surfaces were obtained using a Hitachi S-4500 field emission instrument, operated at an electron beam voltage of 10 kV equipped with a Quartz Xone EDX system. AFM was performed on a Park Systems XE-100 in air with a relative humidity of ˜40%. […] Water contact angles were measured on a Kruss DSA 100 with DSA drop shape analysis software. Using an automated dispensing system, static 5 μL droplets of distilled water were deposited in different areas upon the surface. The contact angles were measured on the left and right side of each drop on at least ten droplets, resulting in a minimum of twenty angles per film. The reported contact angle is the average of all measurements.
# The general procedure for film preparation and curing was as follows: the chosen phosphonium salt (95%) and 1-hydroxycyclohexylphenylketone (CPK, 5%) were dissolved in acetone. Microparticles (when included) were then added to the solution, the resulting mixture insonated in a sonic bath (Elasmonic E 60H, 100 Watts) for 10 minutes and then applied to pre-treated polyester sheets (DuPont) with a pipette. A #10 wire Meyer rod (Gardco) was used to spread the mixture evenly across the polyester substrate, producing a wet thickness of approximately 25 μm. A UV-curing conveyor (UV Process Supply) was set to allow a time exposure of ˜3 s (UV-light irradiance over this time frame was measured at 760 mJ/cm^2). The substrate with the uncured film was taped to a metal sheet and passed through the UV-conveyor.
# Bacteria = assay: Antimicrobial efficacy of [4]Cl films (same procedure, bacterium not given); assay type: cell-based
# Procedure: A desired amount of 2-hydrox-2-methy-1-phenyl-propanone (5 wt %), diacrylate crosslinker (EB 130, a cyclic aliphatic diacrylate) and the acrylate-appended phosphonium salt were weighed and combined in screw top vials. The mixture was then insonated at 45° C. for 20 min until the solutions were free of particulate and haze. After cooling to room temperature, the solutions were cast on polyester films and irradiated with UV light three times. Leached films were treated with H2O (Milli-Q) in a wrist action shaker for 4 hours, followed by washing with H2O (2×10 mL) and air drying. Both leached and unleached films were subjected to the antibacterial test (below).
# The antibacterial activities of the charged surfaces against Gram-negative bacteria Escherichia coli […] were studied using the antibacterial drop-test. E. coli precultured in 15 mL of nutrient broth (Difco™ BD) at 37° C. for 24 h, was washed by centrifuging at 4000 rpm for 10 min. After removing the supernatant, the cells were washed with phosphate buffered saline (PBS) twice and re-suspended and diluted to approximately 10^6 colony forming units (CFU)/mL in PBS solution. The samples were placed in sterilized Petri dishes. 100 μL of PBS solution with bacteria was added dropwise onto sterilized surfaces until completely covered. The petri dishes were sealed and placed in an incubator at 37° C. with the humidity 46%. After 4 hr, the bacteria were washed from the surface of the sample by using 10 mL PBS in the sterilized Petri dish. From this solution, 100 μL was spread onto solid plate count agar (Difco™ BD). After incubation for 24 h at 37° C., the number of surviving bacterial colonies on the Petri dishes were counted. The results after multiplication with the dilution factor were expressed as CFU per mL. The above experiments were carried out in triplicate for each sample. The percentage of killed bacteria was calculated as [(CFU of initial bacterial suspension−CFUs following surface contact)/CFU of initial bacterial suspension]×100.
# As phosphonium content in the films increased, both an increase in surface charge density and bacterial activity was observed. […] The pronounced difference in films containing 25 and 30 wt % is believed to be due to differences in surface energy between EB 130 and the phosphonium salt. The non-polar nature of the crosslinking agent has lower surface energy than that of the phosphonium salt. […] Upon the addition of sufficient phosphonium salt, cations became present at the surface, as detected by the fluorescein dye experiment and exemplified by the increase in antibacterial efficacy. […] Films were prepared and analyzed following the same procedure.
# [3] = Density of surface phosphonium cations by UV-vis (fluorescein dye); assay type: physicochemical
# Procedure: Characterization by FTIR-ATR spectroscopy confirmed the conversion of acrylate functionality post polymerization. Percent cure was determined using a literature procedure. The intensity of the acrylate vibration at 810 cm^−1 was compared to the C═O vibration at 1750 cm^−1 both before and after irradiation. […] The density of surface phosphonium cations was determined by UV-vis spectroscopy as described in a literature procedure.
# Characterization by FTIR-ATR spectroscopy confirmed the conversion of acrylate functionality post polymerization. […] The density of surface phosphonium cations was determined by UV-vis spectroscopy as described in a literature procedure^23. […] This assumes a 1:1 ratio of positive and negative charge on the surface.
# Before deposition of [Au25L18]^−, the number of accessible charges on the PPF was quantified. A known protocol utilizing fluorescein dye was employed to determine the value for the above system and to relate this quantity back to the percentage of phosphonium monomers that were included in the original formulation.^23 This procedure is commonly used as a characterization technique for films containing surface-bound quaternary salts. […] At 30 wt %, a dramatic increase in the number of quaternary charges was observed (1.5×10^15 cations/cm^2). Increasing the salt content to 37.5 and 47.5 wt % yielded surfaces with 8.2×10^15 and 1.4×10^16 cations/cm^2, respectively. […] Use of low melting phosphonium salts permits formation of a formulation having low viscosity despite the high ion content, allowing for ease of handling and deposition. Use of high melting point organic salts in a similar fashion generates formulations with relatively high viscosities or significant solubility issues, which manifest themselves in poor films. Advantages of the phosphonium-based acrylate monomer in the fabrication of the charged surfaces can thus be seen.
# [4] = Water contact angle of UV-cured HDDA films containing HFPPS; assay type: physicochemical; details: UV-cured film
# Procedure: Nuclear Magnetic Resonance (NMR) spectroscopy was conducted on a Varian INOVA 400 MHz spectrometer (^1H, 400.09 MHz, ^31P{^1H} 161.82 MHz, ^19F, 376.15 MHz). All ^1H spectra were referenced relative to tetramethyl silane (CDCl3; ^1H δH=7.26 ppm and CO(CD3)2; ^1H δH=2.04). The chemical shifts for ^31P{H} NMR spectroscopy were referenced using an external standard (85% H3PO4; δP=0). The chemical shifts for ^19F{^1H} NMR spectroscopy were also referenced using an external standard (trifluorotoluene; δF=−63.9 ppm). Infrared spectra were recorded using a Bruker Tensor 27 spectrometer using attenuated total reflectance mode (ATR) using a ZnSe crystal. Sonication of the UV curable formulations was conducted in an E60H Elmasonic sonicator at frequency of 37 kHz using an effective power of 100 W. Deposition of the formulation was performed using a 25-micron Meyer Rod purchased from Gardco on microscope slides purchased from Technologist Choice unless otherwise noted. UV curing was performed using a modified UV curing system purchased from UV Process and Supply Inc. with a mercury bulb. Samples were irradiated with an energy density of 1956 mJ/cm^2 and an irradiance of 1383 mW/cm^2. Water contact angles (WCA) were measured using a Kruss DSA100 Drop Shape Analyzer and analyzed using Drop Shape Analysis. Thermal degradation was determined using Thermal Gravimetric Analysis (TGA) on a Q600 SDT TA instrument. A sample of 5-15 mg was placed in an aluminum cup and heated at a rate of 10° C./min from room temperature to 600° C. under nitrogen atmosphere (100 mL/min). Glass transition temperatures were determined using Differential Scanning calorimetry (DSC) on a DSC Q20 TA instrument. A sample of approximately 10 mg was placed in an aluminum Tzero pan and underwent a heat/cool/heat profile at 10° C./min under nitrogen atmosphere (100 mL/min). Data was acquired from the final heat cycle of the heat/cool/heat profile. Melting points of all HFPS were determined using a Gallenkamp Variable Heater in air. Mass spectrometry was recorded in both positive and negative ion modes using electrospray ionization (ESI) Micromass LCT spectrometer. Elemental analysis (EA) was performed by the Elemental Analysis Laboratory at the Université de Montreal. Time-of-fight Secondary Ion Mass Spectrometry (TOF-SIMS) measurements were performed using an ION-TOF (Gmbh) TOF-SIMS IV equipped with a Bi cluster liquid metal ion source. A 25 keV Bi3^+ cluster primary pulsed ion beam (10 kHz, pulse width 20 ns) was used to bombard the surface to generate secondary ions. The positive or negative secondary ions were extracted from the sample surface, mass separated and detected via a reflectron-type time-of-flight analyser. Depth profiles were obtained by repeating the following cycle: sputtering an area of 500 μm×500 μm on the sample surface with a 3 keV Cs^+ ion beam for 0.5 s followed by, with a delay of 2 s, collecting mass spectra at 128×128 pixels with the Bi3^+ ion beam over an area of 245 μm×245 μm in the center of the sputtered area.
# A desired amount of photoinitiator, crosslinker, and phosphonium salt were weighed and combined in screw top vials. The mixture was then insonated at 45° C. for 20 min until the solutions were free of particulate and haze. After cooling to room temperature, the solutions were cast on glass slides and irradiated with UV light three times.
# [5] = film with 50 w % Al2O3 microparticles (±3)
# [6] = particle-free UV-cured film of the salt with 5 w % CPK on polyester
Compound,Solubility (in words) ([1]; chloroform),Solubility (in words) ([1]; dichloromethane),"WCA [2, 5]","WCA [2, 6]",Water contact angle ([4]; 0.1 wt % in HDDA),Water contact angle ([4]; 0.5 wt % in HDDA),Water contact angle ([4]; 1 wt % in HDDA),Water contact angle ([4]; 1.5 wt % in HDDA),also measured
C=Cc1ccc(C[P+](CCC(F)(F)C(F)(F)C(F)(F)C(F)(F)C(F)(F)C(F)(F)F)(CCC(F)(F)C(F)(F)C(F)(F)C(F)(F)C(F)(F)C(F)(F)F)CC(C)CC(C)(C)C)cc1.[Cl-] (stereo not drawn) [[3]Cl],soluble,soluble,,,,,,,
C=Cc1ccc(C[P+](CCC(F)(F)C(F)(F)C(F)(F)C(F)(F)F)(CCC(F)(F)C(F)(F)C(F)(F)C(F)(F)F)CC(C)CC(C)(C)C)cc1.[Cl-] (stereo not drawn) [[1]Cl],,,88 °,≈ 80 °; also recorded: ≈ 90 °,,,,,
"C=CC(=O)OCCC[P+](CCCC)(CCCC)CCCC.[Cl-] [[4]Cl, (3-(acryloyloxy)propyl)tributylphosphonium chloride]",,,,,,,,,% Bacteria killed (Bacteria; 15% [4]Cl film): 18%; % Bacteria killed (Bacteria; 20% [4]Cl film): 18%; % Bacteria killed (Bacteria; 25% [4]Cl film): 71%; % Bacteria killed (Bacteria; 30% [4]Cl film): 71%; % Bacteria killed (Bacteria; 37.5% [4]Cl film): 75%; % Bacteria killed (Bacteria; 47.5% [4]Cl film): 100%; Charge/Unit area ([3]; 15% [4]Cl film): 0 ×10^x Y^+/cm^2; Charge/Unit area ([3]; 20% [4]Cl film): 5.6 × 10^14 ×10^x Y^+/cm^2; Charge/Unit area ([3]; 25% [4]Cl film): 3.46 × 10^15 ×10^x Y^+/cm^2; Charge/Unit area ([3]; 30% [4]Cl film): 9.07 × 10^15 ×10^x Y^+/cm^2; Charge/Unit area ([3]; 37.5% [4]Cl film): 1.24 × 10^16 ×10^x Y^+/cm^2; Charge/Unit area ([3]; 47.5% [4]Cl film): 2.54 × 10^16 ×10^x Y^+/cm^2
C=Cc1ccc(C[P+](CCC(F)(F)C(F)(F)C(F)(F)C(F)(F)F)(CCC(F)(F)C(F)(F)C(F)(F)C(F)(F)F)CC(C)CC(C)(C)C)cc1.O=S(=O)([N-]S(=O)(=O)C(F)(F)F)C(F)(F)F (stereo not drawn) [[1]NTf2],soluble,soluble,,,82 °,84 °,87 °,87 °,
C=Cc1ccc(C[P+](CCC(F)(F)C(F)(F)C(F)(F)C(F)(F)F)(CCC(F)(F)C(F)(F)C(F)(F)C(F)(F)F)CCC(F)(F)C(F)(F)C(F)(F)C(F)(F)F)cc1.O=S(=O)([N-]S(=O)(=O)C(F)(F)F)C(F)(F)F [[2]NTf2],,,141 °,≈ 90 °,89 °,91 °,92 °,92 °,Water contact angle ([4]; 0.05 wt % in HDDA): 80 °
C=Cc1ccc(C[P+](CCC(F)(F)C(F)(F)C(F)(F)C(F)(F)F)(CCC(F)(F)C(F)(F)C(F)(F)C(F)(F)F)CCC(F)(F)C(F)(F)C(F)(F)C(F)(F)F)cc1.[Cl-] [[2]Cl],,,,≈ 80 °,,,,,
